The nature of data set [1]: Bioavailability of Tretinoin following multiple topical administration of 0.1 % tretinoin gel to 44 male and female subjects. Format: ADME, organism-based. The note with it: both, human, in vivo, topical or ocular, dosed compound id 14, dosed compound name TRETINOIN, gender male and female, regimen Multiple dose, study dosing duration 28 days, tissue Plasma.
Data set [2] can be described thus: Bioavailability of Tretinoin following single topical administration of 0.1 % tretinoin gel to 44 male and female subjects. Format: ADME, organism-based. The settings on record: both, human, in vivo, topical or ocular, dosed compound id 14, dosed compound name TRETINOIN, gender male and female, regimen Single dose, study dosing duration 28 days, tissue Plasma.

The values that follow come from ChEMBL document CHEMBL3832031, “DailyMed|setid=d3c528d2-429d-4f37-9ebf-eee8b9fd3050 | TRENTINOIN - tretinoin gel| Oceanside Pharmaceuticals”.

Turning to `CC1=C(/C=C/C(C)=C/C=C/C(C)=C/C(=O)O)C(C)(C)CCC1` [TRETINOIN], the values for the bioavailability in data set [1] and in data set [2] were 1.41% and 0.82%, respectively.

As usually defined, the bioavailability is dose-corrected exposure relative to a reference, in per cent. The low end stands for poor availability, the high end for good availability.
